# Measurements reported in patent publication US20240383900A1, “SUBSTITUTED PYRAZOLO [1,5-A]PYRIMIDINE-7-AMINE COMPOUNDS AS CDK INHIBITORS AND THEIR THERAPEUTIC USE” (Carrick Therapeutics Limited, priority 2021, published 2024).
# Where two headings read alike, the source gives them in different places.
# Key:
# A673 cells [1] = experiment: Cytotoxicity in A673 cells (Cell Titer Glo viability); format: cell-based; conditions: for IC50: Homo sapiens; for Ratio of Biochemical Potency:Cellular Potency: CDK12 IC50 / A673 IC50
# In short: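 Cells plated at 1.2×10^5 per well in DMEM+10% FBS, 24 h, then compound series ± MLN4924 (30 nM final) in 0.1% DMSO for 72 h. Viability by Cell Titer Glo luminescence, normalised to vehicle (100%) and 0.1% Triton x-100 (0%); MLN4924 curves normalised to MLN4924-treated controls.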
# A673 cells [2] = experiment: A673 cytotoxic potency shift in the presence of MLN4924 (cyclin K degrader activity); format: cell-based; conditions: 30 nM MLN4924, 72 hours
# Protocol: Inhibition of cell viability by test compounds was assessed in A673 cells (ATCC CRL-1598) and the compound mode of action was attributed to a “molecular-glue”/cyclin K-degradation mechanism by probing for a loss of compound potency in the presence of the NEDD8-activating enzyme inhibitor, MLN4924.
# Cells were plated in 96-well plates at a density of […] viable cells per well in 200 μL fully supplemented growth medium (DMEM+10% heat inactivated foetal bovine serum) and incubated for 24 hours in standard tissue culture conditions. Compounds, including MLN4924, were solubilised in DMSO and then diluted in fully supplemented growth medium at 2× their final assay concentration such that the final DMSO concentration was 0.1%. Growth medium in the assay plates was replaced with 50 μL of growth medium containing 2×MLN4924 (final assay concentration: 30 nM, where tested) or vehicle only and 50 μL of growth medium containing a 2× compound concentration series or vehicle only such that each compound was at 1× final assay concentration in 100 μL.
# Cells were then incubated for 72 hours in standard tissue culture conditions before viability was assessed using 50 μL Cell Titer Glo reagent (Promega) per well and luminescence measured on an EnVision plate reader. Data were normalised to vehicle control (100%) and cells treated with 0.1% Triton x-100 for 1 hour before viability measurement (0%; full cell kill). IC50 values were determined using a semi-logistic curve fit with parameters “top” fixed at 100% and “bottom” at or below 0%. Viability curves generated in the presence of MLN4924 were normalised and fixed to controls treated with MLN4924.
# Human CDK12 wt/CycK = Human CDK12 wt/CycK (Homo sapiens (Human), UniProt Q9NYV4); experiment: Radiometric protein kinase assay (33PanQinase Activity Assay), CDK12; format: biochemical; conditions: for CDK7/CDK12: ratio of CDK7 IC50 to CDK12 IC50, greater than 1 indicates selectivity for CDK12
# In short: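 Radiometric 33P assay: ATP, test compound (in 10% DMSO) and premixed substrate/enzyme incubated 60 min at 30 °C, stopped with 2% H3PO4. 33Pi incorporation counted by scintillation; least-squares curve fit.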
# Human CDK7/CycH/MAT1 = Human CDK7/CycH/MAT1 (Homo sapiens (Human), UniProt P50613); experiment: Radiometric protein kinase assay (33PanQinase Activity Assay), CDK7; format: biochemical; conditions: ATP 3 μM
# [3] = A673, read-out: Cellular Potency IC50 (nM) (in A673 cells)
# [4] = A673 cells, 72 hours, read-out: A673 IC50
# [5] = ATP 0.3 μM, read-out: CDK12 IC50
# [6] = read-out: CKD12 Biochemical Potency IC50
# Sequence of Human CDK12 wt/CycK (Q9NYV4 whole entry): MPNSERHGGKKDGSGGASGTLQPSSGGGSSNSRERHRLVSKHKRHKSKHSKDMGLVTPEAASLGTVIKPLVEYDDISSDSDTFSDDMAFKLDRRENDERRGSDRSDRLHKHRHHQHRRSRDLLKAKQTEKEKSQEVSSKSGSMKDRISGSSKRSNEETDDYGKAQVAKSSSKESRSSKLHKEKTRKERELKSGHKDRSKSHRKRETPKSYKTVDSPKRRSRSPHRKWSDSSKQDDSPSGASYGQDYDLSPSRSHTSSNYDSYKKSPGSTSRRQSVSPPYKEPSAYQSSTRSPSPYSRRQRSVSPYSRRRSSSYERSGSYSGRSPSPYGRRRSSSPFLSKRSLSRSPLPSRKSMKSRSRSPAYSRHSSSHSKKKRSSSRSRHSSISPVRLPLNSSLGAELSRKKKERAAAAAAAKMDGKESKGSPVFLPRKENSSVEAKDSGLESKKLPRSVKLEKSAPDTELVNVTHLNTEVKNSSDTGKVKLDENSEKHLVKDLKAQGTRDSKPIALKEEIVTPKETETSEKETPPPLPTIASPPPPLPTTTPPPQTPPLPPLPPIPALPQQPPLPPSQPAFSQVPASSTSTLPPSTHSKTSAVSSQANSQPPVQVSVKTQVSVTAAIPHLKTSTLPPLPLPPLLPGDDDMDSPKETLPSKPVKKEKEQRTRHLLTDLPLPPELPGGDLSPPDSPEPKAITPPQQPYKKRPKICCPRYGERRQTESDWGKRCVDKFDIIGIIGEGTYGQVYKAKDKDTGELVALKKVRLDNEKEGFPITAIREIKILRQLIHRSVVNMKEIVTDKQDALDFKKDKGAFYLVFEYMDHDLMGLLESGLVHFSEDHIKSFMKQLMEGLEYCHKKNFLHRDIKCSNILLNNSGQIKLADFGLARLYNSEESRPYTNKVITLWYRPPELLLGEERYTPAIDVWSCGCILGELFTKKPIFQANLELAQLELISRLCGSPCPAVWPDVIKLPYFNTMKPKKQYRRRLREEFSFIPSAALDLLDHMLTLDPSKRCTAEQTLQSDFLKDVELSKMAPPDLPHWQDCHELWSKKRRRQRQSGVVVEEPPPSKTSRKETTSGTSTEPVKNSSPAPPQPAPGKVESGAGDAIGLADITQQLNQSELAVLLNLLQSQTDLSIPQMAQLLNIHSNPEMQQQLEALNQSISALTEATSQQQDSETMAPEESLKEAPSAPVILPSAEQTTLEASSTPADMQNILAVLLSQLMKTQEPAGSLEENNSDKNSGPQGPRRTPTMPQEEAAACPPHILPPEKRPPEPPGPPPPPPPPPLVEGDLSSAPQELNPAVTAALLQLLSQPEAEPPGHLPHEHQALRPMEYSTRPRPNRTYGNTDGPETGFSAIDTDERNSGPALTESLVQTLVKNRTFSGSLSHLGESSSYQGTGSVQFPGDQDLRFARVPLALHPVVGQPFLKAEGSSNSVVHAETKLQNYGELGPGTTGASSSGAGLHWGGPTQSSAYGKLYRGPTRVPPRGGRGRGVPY
# Sequence of Human CDK12 wt/CycK (O75909 whole entry partner): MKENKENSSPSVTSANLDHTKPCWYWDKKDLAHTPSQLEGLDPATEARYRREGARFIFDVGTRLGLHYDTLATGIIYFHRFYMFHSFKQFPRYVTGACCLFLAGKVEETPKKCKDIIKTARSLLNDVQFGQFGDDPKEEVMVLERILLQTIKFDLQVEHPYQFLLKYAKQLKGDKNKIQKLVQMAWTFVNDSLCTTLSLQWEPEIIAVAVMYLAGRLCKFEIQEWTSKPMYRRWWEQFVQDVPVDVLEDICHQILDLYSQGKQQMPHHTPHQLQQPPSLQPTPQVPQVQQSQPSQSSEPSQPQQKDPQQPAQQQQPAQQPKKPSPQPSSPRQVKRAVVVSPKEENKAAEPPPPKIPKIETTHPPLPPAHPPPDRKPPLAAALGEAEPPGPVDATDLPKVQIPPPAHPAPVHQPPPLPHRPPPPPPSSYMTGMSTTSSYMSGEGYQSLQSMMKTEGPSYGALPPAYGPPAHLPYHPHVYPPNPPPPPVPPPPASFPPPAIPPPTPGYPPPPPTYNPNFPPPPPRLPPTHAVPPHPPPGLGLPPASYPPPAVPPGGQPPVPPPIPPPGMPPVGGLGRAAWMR
# Sequence of Human CDK7/CycH/MAT1 (P50613 whole entry): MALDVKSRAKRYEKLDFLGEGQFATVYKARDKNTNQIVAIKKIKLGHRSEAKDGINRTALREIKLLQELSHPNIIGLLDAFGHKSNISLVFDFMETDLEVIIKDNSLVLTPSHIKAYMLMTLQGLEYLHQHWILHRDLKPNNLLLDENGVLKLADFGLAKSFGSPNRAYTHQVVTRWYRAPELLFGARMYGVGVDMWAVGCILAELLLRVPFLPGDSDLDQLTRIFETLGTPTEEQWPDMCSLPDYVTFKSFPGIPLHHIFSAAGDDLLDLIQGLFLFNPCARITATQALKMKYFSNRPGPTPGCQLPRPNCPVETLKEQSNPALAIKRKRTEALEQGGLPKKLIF
# Sequence of Human CDK7/CycH/MAT1 (P51946 whole entry partner): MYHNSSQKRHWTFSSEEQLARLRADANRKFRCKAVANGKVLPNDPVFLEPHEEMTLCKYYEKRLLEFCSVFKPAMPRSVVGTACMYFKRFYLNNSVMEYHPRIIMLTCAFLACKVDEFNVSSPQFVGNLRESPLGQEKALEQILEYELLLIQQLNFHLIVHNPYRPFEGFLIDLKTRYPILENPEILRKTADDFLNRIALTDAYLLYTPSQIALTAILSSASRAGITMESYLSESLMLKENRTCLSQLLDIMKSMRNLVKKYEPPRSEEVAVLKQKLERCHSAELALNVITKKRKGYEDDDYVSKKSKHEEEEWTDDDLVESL
# Sequence of Human CDK7/CycH/MAT1 (P51948 whole entry partner): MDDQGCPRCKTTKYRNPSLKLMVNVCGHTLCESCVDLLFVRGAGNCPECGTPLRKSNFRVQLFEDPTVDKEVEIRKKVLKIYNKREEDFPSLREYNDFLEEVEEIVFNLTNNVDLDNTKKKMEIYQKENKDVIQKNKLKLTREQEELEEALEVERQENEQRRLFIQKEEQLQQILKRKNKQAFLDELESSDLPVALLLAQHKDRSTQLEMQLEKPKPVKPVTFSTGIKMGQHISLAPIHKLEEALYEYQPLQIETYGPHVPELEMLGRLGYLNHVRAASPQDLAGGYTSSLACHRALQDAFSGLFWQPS
Compound,IC50 (Human CDK12 wt/CycK; [5]) [µM],CDK7/CDK12 (Human CDK12 wt/CycK),IC50 (Human CDK12 wt/CycK; [6]) [µM],IC50 (Human CDK7/CycH/MAT1) [µM],IC50 (A673 cells [1]; [3]) [nM],IC50 (A673 cells [1]; [4]) [nM],Cyclin K Degrader Activity (A673 potency shift + MLN4924) (A673 cells [2]),Ratio of Biochemical Potency:Cellular Potency (A673 cells [1])
c1ccc(-c2ccc(CNc3cc(C4CCNCC4)nc4c(C5CC5)cnn34)cc2)nc1 [PPA-100],–,–,–,–,1.5,43.5,+++ (>5 fold change.),–
c1ccc(-c2ccc(CNc3cc(NCC4CCNCC4)nc4c(C5CC5)cnn34)cc2)nc1 [PPA-040],0.743,9.3,0.743,6.92,20.2,20.2,+++ (>5 fold change.),36.78
O[C@H]1CNCC[C@@H]1CNc1cc(NCc2ccc(-c3nccs3)cc2)n2ncc(C3CC3)c2n1 [PPA-018],0.039,2.7,0.039,0.106,0.9,0.9,+++ (>5 fold change.),43.33
c1csc(-c2ccc(CNc3cc(N[C@H]4CCNC4)nc4c(C5CC5)cnn34)cc2)n1 [PPA-098],–,–,–,–,8.1,3.2,+++ (>5 fold change.),–
CN(c1cc(NCc2ccc(-c3ccccn3)cc2)n2ncc(C3CC3)c2n1)C1CCNCC1 [PPA-039],0.169,12.4,0.169,2.09,2.8,2.8,+ (>1 and ≤2 fold change.),60.36
c1ccc(-c2ccc(CNc3cc(N[C@H]4CCNC4)nc4c(C5CC5)cnn34)cc2)nc1 [PPA-037],0.028,8.9,0.028,0.25,0.7,0.7,+++ (>5 fold change.),40.00
c1cnn(-c2ccc(CNc3cc(OC4CNC4)nc4c(C5CC5)cnn34)cc2)c1 [PPA-097],–,–,–,–,3.5,0.4,+++ (>5 fold change.),–
Cc1ncccc1-c1cc(NCc2ccc(-c3ccccn3)cc2)n2ncc(C3CC3)c2n1 [PPA-096],–,–,–,–,14.9,7.6,+++ (>5 fold change.),–
Cc1n[nH]cc1-c1cc(NCc2ccc(-c3ccccn3)cc2)n2ncc(C3CC3)c2n1 [PPA-095],–,–,–,–,43.5,4.7,+ (>1 and ≤2 fold change.),–
c1cnn(-c2ccc(CNc3cc(N[C@H]4CCCNC4)nc4c(C5CC5)cnn34)cc2)c1 [PPA-099],–,–,–,–,1.2,0.9,++ (>2 and ≤5 fold change.),–
N#Cc1cnn2c(NCc3ccc(-c4ncccn4)cc3)cc(N[C@H]3CCCNC3)nc12 [PPA-094],–,–,–,–,0.9,1.9,+++ (>5 fold change.),–
c1ccc(-c2ccc(CNc3cc(N4CC5(CCNCC5)C4)nc4c(C5CC5)cnn34)cc2)nc1 [PPA-042],2.02,5.1,2.02,10.3,232,232,–,8.69
O[C@H]1CNCC[C@@H]1CNc1cc(NCc2cc(F)c(-c3ccccn3)cn2)n2ncc(C3CC3)c2n1 [PPA-022],0.072,1.8,0.072,0.13,1.5,1.5,–,48.00
COc1cccnc1-c1ccc(CNc2cc(NC[C@H]3CCNC[C@@H]3O)nc3c(C4CC4)cnn23)cc1 [PPA-027],0.163,1.8,0.163,0.3,2.2,2.2,–,74.09

# Continued, in another order:
IC50 (Human CDK12 wt/CycK; [5]) [µM],CDK7/CDK12 (Human CDK12 wt/CycK),IC50 (Human CDK12 wt/CycK; [6]) [µM],IC50 (Human CDK7/CycH/MAT1) [µM],Compound,IC50 (A673 cells [1]; [3]) [nM],IC50 (A673 cells [1]; [4]) [nM],Cyclin K Degrader Activity (A673 potency shift + MLN4924) (A673 cells [2]),Ratio of Biochemical Potency:Cellular Potency (A673 cells [1])
0.204,25.8,0.204,5.26,c1ccc(-c2ccc(CNc3cc(C4CNC4)nc4c(C5CC5)cnn34)cc2)nc1 [PPA-058],6.9,6.9,+++ (>5 fold change.),29.57
0.04,38.8,0.04,1.55,N#Cc1cnn2c(NCc3ccc(-c4ccccc4)cc3F)cc(N[C@H]3CCNC3)nc12 [PPA-071],1.4,1.4,+++ (>5 fold change.),28.57
0.013,18.1,0.013,0.235,N#Cc1cnn2c(NCc3ccc(-c4ccccn4)cc3)cc(N[C@H]3CCCNC3)nc12 [PPA-092],0.4,1,+++ (>5 fold change.),32.50
0.134,17.8,0.134,2.39,c1ccc(-c2ccc(CNc3cc(OCC4CNC4)nc4c(C5CC5)cnn34)cc2)nc1 [PPA-055],24.9,24.9,++ (>2 and ≤5 fold change.),5.38
0.107,5.3,0.107,0.562,N#Cc1cnn2c(NCc3ccc(-c4ccccc4)cc3F)cc(NC[C@H]3CCNC[C@@H]3O)nc12 [PPA-070],5.3,5.3,+++ (>5 fold change.),20.19
0.593,10.5,0.593,6.24,N[C@H]1CC(=O)N(c2cc(NCc3ccc(-c4ccccn4)cc3)n3ncc(C4CC4)c3n2)C1 [PPA-078],30.2,30.2,–,19.64
0.082,15.7,0.082,1.29,c1ccc(-c2ccc(CNc3cc(NC4CCNCC4)nc4c(C5CC5)cnn34)cc2)nc1 [PPA-048],6.8,6.8,–,12.06
